# How the values were obtained:
# Format in all cases: cell-based, human
# SHH (Sonic Hedge Hog) = experiment: RT-PCR analysis (1) of cell mass, SHH; conditions: in the presence of BIO (same in its absence), FIG. 7
# Description: (§1) Hair papilla cells were prepared to P3 or more (with P1 indicating one round of subculturing) in the presence or absence of BIO loading, while keratinocytes were prepared up to and including P3.
# (§2) Each of the cells was diluted with each medium following trypsin treatment so as to obtain 1×10^5 cells.
# (§3) In the case of adding BIO (Calbiochem), the BIO was dissolved to 10 mM with dimethylsulfoxide (DMSO) and added to a concentration of 0.1 to 5 μM.
# (§4) 25 to 35 μl of each culture medium was dispensed onto the inside of the upper lid of a square culture dish measuring 10 cm on a side and mixed to prepare dome-shaped droplets of a suitable size.
# (§5) Three days later, the medium was replaced with the same medium as that used above.
# (§6) After culturing for an additional four days, a portion of the medium was subjected to RT-PCR analysis (1) as described below. All of the remaining media was replaced with medium under conditions of the absence of BIO.
# (§7) RNA was extracted from each sample using Trizol (Invitrogen). An equivalent of 200 ng of each RNA was reverse transcribed to cDNA with a reaction system consisting of 50 μl of RevTraACE (Toyobo). 1 μl of the resulting samples was applied to a PCR reaction in a 50 μl system using the primers listed below. […]
# TWIST-1 = experiment: RT-PCR analysis (1) of cell mass, TWIST-1; conditions: in the presence of BIO, ascribed to relative decrease of hair papilla cells, FIG. 7
# Description: as §1, §2, §3, §4, §5, §6, §7
# Wnt10B = Wnt10B RT-PCR, RT-PCR analysis (3), quantitative PCR of cell mass; conditions: FIG. 9
# Description: Hair papilla cells were prepared to P3 (with P1 indicating one round of subculturing) in the absence of BIO loading, while outer root sheath cells were prepared up to and including P3.
# (§8) Each of the cells was diluted with each medium following trypsin treatment so as to obtain 3×10^3 cells.
# (§9) BIO (Calbiochem) was dissolved to 10 mM with dimethylsulfoxide (DMSO) and added to a concentration of 0.1 to 5 μM.
# as §4
# (§10) Three days later, the medium was replaced with the same medium as that used above. […]
# RNA was extracted from the samples using Trizol (Invitrogen). […] 4 μl of the resulting samples were applied to a quantitative PCR system (LightCycler System, Roche) in a 20 μl system using the primers listed below. […]
# All data was expressed as the relative expressed amount based on the expressed amount after 3 days in the case of not loading the cell mass with BIO. […] Accordingly, in this experimental system, differentiation of follicular epithelial cells (outer root sheath cells), and what is more, autonomous organogenesis were clearly determined to be induced by culturing in the presence of BIO followed by culturing after removing BIO.
# Versican gene = experiment: RT-PCR analysis (1) of cell mass, Versican; conditions: in the presence of BIO, ascribed to relative decrease of hair papilla cells, FIG. 7
# Description: as §1, §2, §3, §4, §5, §6, §7
# [1] = system: cell mass of hair papilla cells and epidermal keratinocytes; experiment: Immunohistofluorescent staining of hanging-drop cell mass (hair papilla cells and keratinocytes)
# Description: 30% Advanced DMEM (Invitrogen), 2 mM L-glutamine, a mixture of penicillin and streptomycin (Invitrogen, 100-fold dilution) and 3.5 μl/50 ml of β-mercaptoethanol were mixed with Humedia KG-2 (Kurabo) at a ratio of 1:1.
# as §3, §1, §2, §4, §10
# In the color version of this diagram, green coloring by vimentin antibody and red coloring by CD49f antibody can be distinguished, and each were able to be determined to be hair papilla cells and keratinocytes, respectively. […] After the cell masses formed following the addition of BIO, red-staining keratinocytes were determined to be growing in a regular manner in the form of branches within cell masses cultured in the absence of BIO. […]
# [2] = system: cell masses prepared with hair papilla cells and outer root sheath cells; experiment: Immunohistofluorescent staining of cell mass prepared with hair papilla cells and outer root sheath cells
# Description: Each of the cell masses obtained with the hanging drop method were fixed for 5 minutes with 0.1% paraformaldehyde and submitted for staining. In addition, a portion of the cell masses were embedded in OCT solution without fixing and prepared into frozen sections with a cryostat followed by immunohistostaining.
# Blocking was carried out for 6 hours with PBS(−) containing 13% bovine serum albumin (BSA).
# Each of the primary antibodies indicated in the following table were diluted by 1/200 with the aforementioned PBS(−) containing 13% bovine serum albumin (BSA), added to each sample and allowed to react for 4 hours at 4° C.
# The cells were washed three times with PBS(−) containing 0.02% Tween 20.
# Fluorescent secondary antibody (see Excel file) diluted by 1/200 with the aforementioned PBS(−) containing 13% bovine serum albumin (BSA) was added to each sample. In addition, the nuclei of the cells were stained blue with DAPI (4′-6-diamidino-2-phenylindole).
# Antibody to cytokeratin 14 (K14) expressed in epidermal keratinocytes and outer root sheath cells is used for the purpose of confirming that these cells have not differentiated to hair roots (red). Since AE13 monoclonal antibody, which specifically reacts to hair keratin (Lynch et al., J. Cell Biol., 103, 2593, 1986), recognizes 44K/46K acidic hair keratin dimer, it is used to mark differentiation into hair roots (green). […]
# Wnt3A = Wnt3A RT-PCR, RT-PCR analysis (2) of cell mass; conditions: FIG. 8
# Description: Hair papilla cells were prepared to P3 (with P1 indicating one round of subculturing) in the presence of BIO loading, while keratinocytes were prepared up to and including P3.
# as §8, §9, §4
# Three days later, the medium was replaced with the same medium as that used above. The samples were collected on the 7th day and submitted for RT-PCR analysis (2) as described below (“0 day” in FIG. 8). The medium used for the same remaining cells was replaced with medium under conditions of the absence of BIO to induce differentiation, after which the samples collected on the 3rd day were submitted for RT-PCR analysis (2) as described below (“3 days” in FIG. 8).
# RNA was extracted from the samples using Trizol (Invitrogen). […]
# 10 μl of the reaction solution was electrophoresed at 100 V in 2% agarose gel (Cosmobio)/TAE buffer. Target bands were detected after visualizing with ethidium bromide.
# Lef-1 = experiment: RT-PCR analysis (1) of cell mass, Lef-1; conditions: in the presence of BIO (also detected in its absence), FIG. 7
# Description: as §1, §2, §3, §4, §5, §6, §7
# STAT-3 = experiment: RT-PCR analysis (1) of cell mass, STAT-3; conditions: presence of BIO compared with absence, FIG. 7
# Description: as §1, §2, §3, §4, §5, §6, §7
compound,measurement,setting,value
"O=C1Nc2cc(Br)ccc2/C1=C1/Nc2ccccc2/C1=N\O [BIO, (2′Z,3′E)-6-bromoindirubin-3′-oxime]",expression of SHH gene,SHH (Sonic Hedge Hog),not detected
same,expression of TWIST-1 gene,TWIST-1,expression appearing to decrease
same,"expression of Wnt10B, relative expressed amount",Wnt10B; after removing BIO (day 10 and day 14),increased over time
same,"expression of Wnt10B, relative expressed amount","Wnt10B; cultured in the presence of BIO (day 7), versus control cultured in the absence of BIO",about the same level as that of a control
same,expression of Versican gene,Versican gene,expression appearing to decrease
same,"staining for the proliferation marker, K167, in the cell mass","[1]; cell mass formed by adding BIO 0.1 to 5 μM, central portion and branch-like end portion, FIG. 3",positive
same,staining by AE13 antibody (hair keratin),"[1]; hair papilla cells and epidermal keratinocytes, stimulated with BIO, no staining without BIO, FIG. 5",staining is observed in some cell masses
same,immunostaining by Ber-EP4 antibody (hair buds),"[2]; hair papilla cells and outer root sheath cells stimulated with BIO, FIG. 6",clearly observed
same,staining by AE13 antibody (hair keratin),"[2]; hair papilla cells and outer root sheath cells, BIO stimulation versus absence of BIO, FIG. 5",considerably enhanced
same,expression of Wnt3A,"Wnt3A; 3rd day after removal of BIO (""3 days"")",expression of Wnt3A was observed
same,expression of Wnt3A,"Wnt3A; cultured in the presence of BIO, 7th day (""0 day"")",not being observed at all
same,expression of Lef-1 gene,Lef-1,detected
same,expression of STAT-3 gene,STAT-3,detected prominently
